Experimental data published in ChEMBL document CHEMBL1201862, “PubChem BioAssay data set” (2004).
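Growth conditions: 96-well plates. Treatment: test compound, 48 hours, 5 concentrations. Analysis: linear interpolation between bracketing concentrations; unreached endpoints set to highest concentration. GI50 marks 50% less growth.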 Active and inactive are the calls of the source. No stated cut-off is given here; in the data, active = GI50 up to about 1.1 µM and inactive = higher.

What was measured:
Test in all cases: NCI-60 cell line screen, 48 h
CAKI-1 = test system: CAKI-1
DLD-1 = test system: DLD-1
DMS-273 = test system: DMS-273
HCC 2998 = test system: HCC 2998
HCT-15 = test system: HCT-15
MCF7 = test system: MCF7
NCI/ADR-RES = test system: NCI/ADR-RES
SK-MEL-28 = test system: SK-MEL-28
SN12C = test system: SN12C
UO-31 = test system: UO-31
XF498 = test system: XF498
LXFL 529 = test system: LXFL 529
M14 = test system: M14
SNB-78 = test system: SNB-78
SR = test system: SR
TK-10 = test system: TK-10
A498 = test system: A498
Hs-578T = test system: Hs-578T
MDA-MB-435 = test system: MDA-MB-435
PC-3 = test system: PC-3

Structure (SMILES) | GI50 (CAKI-1) | GI50 (DLD-1) | GI50 (DMS-273) | GI50 (HCC 2998) | GI50 (HCT-15) [µM] | GI50 (MCF7) | GI50 (NCI/ADR-RES) | GI50 (SK-MEL-28) | GI50 (SN12C) | GI50 (UO-31) | GI50 (XF498) | GI50 (LXFL 529) | GI50 (M14) | GI50 (SNB-78) | GI50 (SR) | GI50 (TK-10) | GI50 (A498) | GI50 (Hs-578T) | GI50 (MDA-MB-435) | GI50 (PC-3)
O=c1ccn([C@@H]2C=C(CO)[C@@H](O)[C@H]2O)c(=O)[nH]1 | > 625 µM (inactive) | > 625 µM (inactive) | > 625 µM (inactive) | > 625 µM (inactive) | > 625 | > 625 µM (inactive) | > 625 µM (inactive) | > 625 µM (inactive) | > 625 µM (inactive) | > 625 µM (inactive) | < 0.0625 µM (active) | – | – | – | – | – | – | – | – | –
COc1ccc(/C=c2\sc3n(c2=O)CCN=3)cc1 | – | > 100 µM (inactive) | – | 62.4 µM (inactive) | > 100 | – | – | > 100 µM (inactive) | 75.7 µM (inactive) | > 100 µM (inactive) | – | > 100 µM (inactive) | > 100 µM (inactive) | > 100 µM (inactive) | > 100 µM (inactive) | > 100 µM (inactive) | – | – | – | –
c1ccc(-n2cnnc2-c2nsc3ccccc23)cc1 | – | – | > 100 µM (inactive) | > 100 µM (inactive) | 74 | – | – | > 100 µM (inactive) | > 100 µM (inactive) | > 100 µM (inactive) | – | > 100 µM (inactive) | > 100 µM (inactive) | > 100 µM (inactive) | – | > 100 µM (inactive) | – | – | – | –
CCCN1C(=O)/C(=C(/O)C(=O)OCC)C(c2ccc(OC)c(OC)c2)C1=O (stereo not given) | > 100 µM (inactive) | > 100 µM (inactive) | > 100 µM (inactive) | > 100 µM (inactive) | > 100 | > 100 µM (inactive) | > 100 µM (inactive) | > 100 µM (inactive) | > 100 µM (inactive) | > 100 µM (inactive) | > 100 µM (inactive) | – | – | > 100 µM (inactive) | – | – | > 100 µM (inactive) | – | – | –
NCCCN(CCCN)CCN(CCN(CCCN)CCCN)CCN(CCCN)CCCN | > 100 µM (inactive) | – | – | > 100 µM (inactive) | > 100 | > 100 µM (inactive) | > 100 µM (inactive) | > 100 µM (inactive) | > 100 µM (inactive) | > 100 µM (inactive) | – | – | > 100 µM (inactive) | – | > 100 µM (inactive) | > 100 µM (inactive) | – | 23.5 µM (inactive) | > 100 µM (inactive) | > 100 µM (inactive)
C[C@H]1O[C@@H](O[C@H]2[C@@H](O)C[C@H](O[C@H]3[C@@H](O)C[C@H](O[C@H]4CC[C@@]5(C)[C@H](CC[C@@H]6[C@@H]5CC[C@]5(C)[C@@H](C7=CC(=O)OC7)CC[C@]65O)C4)O[C@@H]3C)O[C@@H]2C)C[C@H](O)[C@@H]1O [DIGITOXIN] | 0.0184 µM (active) | – | – | 0.171 µM (active) | 0.0305 | 0.0413 µM (active) | 0.0283 µM (active) | 0.092 µM (active) | < 0.01 µM (active) | 0.0414 µM (active) | – | – | – | – | 0.0338 µM (active) | 0.0252 µM (active) | – | < 0.0378 µM (active) | 0.0485 µM (active) | < 0.033 µM (active)
COc1ccc(C2COc3cc(OC(C)=O)c(OC(C)=O)cc3C2)cc1 (stereo not given) | 23 µM (inactive) | 20.5 µM (inactive) | 17.9 µM (inactive) | 23.2 µM (inactive) | 20.3 | 29.4 µM (inactive) | 36.3 µM (inactive) | 23.8 µM (inactive) | 17.5 µM (inactive) | 19.5 µM (inactive) | 8.49 µM (inactive) | – | – | 26.1 µM (inactive) | – | – | 4.54 µM (inactive) | – | – | –
CCOC(=O)c1ccc(N(CCOS(C)(=O)=O)CCOS(C)(=O)=O)cc1 | 12.6 µM (inactive) | – | – | 60.3 µM (inactive) | 40.9 | 47.3 µM (inactive) | 35.7 µM (inactive) | > 100 µM (inactive) | – | 20.5 µM (inactive) | – | – | 53.1 µM (inactive) | – | – | 83.4 µM (inactive) | 35.2 µM (inactive) | 29.3 µM (inactive) | 52.2 µM (inactive) | 50.7 µM (inactive)
CN1COCN/C1=N/C#N | > 100 µM (inactive) | > 100 µM (inactive) | – | > 100 µM (inactive) | > 100 | – | – | > 100 µM (inactive) | > 100 µM (inactive) | > 100 µM (inactive) | > 100 µM (inactive) | > 100 µM (inactive) | > 100 µM (inactive) | > 100 µM (inactive) | – | – | > 100 µM (inactive) | – | – | –
